Laboratory results from publication PMC11650360 (Archiv Der Pharmazie, 2024).

Key:
VchCAα = VchCAα (Vibrio cholerae, UniProt Q9KMP6); assay: stopped-flow CO2 hydrase assay; type: biochemical
VchCAβ = VchCAβ (Vibrio cholerae, UniProt Q9KUD6); assay: biochemical
Sequence of VchCAβ (Q9KUD6 1-222): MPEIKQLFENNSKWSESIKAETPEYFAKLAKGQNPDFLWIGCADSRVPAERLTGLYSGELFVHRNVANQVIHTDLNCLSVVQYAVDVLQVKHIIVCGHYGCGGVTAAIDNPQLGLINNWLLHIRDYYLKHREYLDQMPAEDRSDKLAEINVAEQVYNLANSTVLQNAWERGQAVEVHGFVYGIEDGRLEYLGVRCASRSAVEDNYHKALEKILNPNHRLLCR

Sequence of VchCAα (Q9KMP6 21-239): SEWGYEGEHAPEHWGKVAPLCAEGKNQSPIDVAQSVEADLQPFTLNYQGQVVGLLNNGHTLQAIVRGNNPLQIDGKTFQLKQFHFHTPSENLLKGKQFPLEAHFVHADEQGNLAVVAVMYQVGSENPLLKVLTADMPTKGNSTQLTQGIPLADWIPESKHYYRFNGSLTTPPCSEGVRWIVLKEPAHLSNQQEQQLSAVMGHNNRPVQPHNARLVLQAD

| SMILES | Ki (VchCAα) [µM] | Ki (VchCAβ) [µM] |
| --- | --- | --- |
| NS(=O)(=O)CCCn1cc(COc2ccccc2)nn1 [compound 1, 1] | 29.1 | 4.16 |
| COc1ccc(OCc2cn(CCCS(N)(=O)=O)nn2)cc1 [compound 3, 3] | 16.5 | 2.96 |
| NS(=O)(=O)CCCn1cc(CNC(=O)Nc2ccc(F)cc2)nn1 [compound 5, 5] | 13.4 | 0.93 |
| Cc1ccc(NC(=O)NCc2cn(CCCS(N)(=O)=O)nn2)cc1 [compound 6, 6] | – | 0.82 |
| NS(=O)(=O)CCCn1cc(CNC(=O)Nc2ccc(C(F)(F)F)cc2)nn1 [compound 7, 7] | 11.2 | 0.67 |
| COc1cccc(NC(=O)NCc2cn(CCCS(N)(=O)=O)nn2)c1 [compound 9, 9] | 17.5 | 1.72 |
| NS(=O)(=O)CCCCn1cc(COc2ccccc2)nn1 [compound 14, 14] | 34.4 | 6.91 |
| COc1ccc(OCc2cn(CCCCS(N)(=O)=O)nn2)cc1 [compound 16, 16] | 28.7 | 6.13 |
| NS(=O)(=O)CCCCn1cc(CNC(=O)Nc2ccc(F)cc2)nn1 [compound 18, 18] | 16.9 | 3.41 |
| Cc1ccc(NC(=O)NCc2cn(CCCCS(N)(=O)=O)nn2)cc1 [compound 19, 19] | 18.3 | 2.86 |
| NS(=O)(=O)CCCCn1cc(CNC(=O)Nc2ccc(C(F)(F)F)cc2)nn1 [compound 20, 20] | 16.8 | 3 |
| COc1cccc(NC(=O)NCc2cn(CCCCS(N)(=O)=O)nn2)c1 [compound 22, 22] | 14 | 1.97 |
